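Step 1: Grow cells in 96-well plates. Step 2: Expose to compound for 48 hours at 5 concentrations. Step 3: Interpolate endpoints linearly; if unreached, use highest concentration. GI50 = concentration required for 50% inhibition of growth. TGI: concentration producing complete growth inhibition.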
Tests used:
Assay in all cases: growth of human tumour cells (NCI), 48 h
[1] = test system: KM12 colon
[2] = test system: CCRF-CEM leukemia
[3] = test system: RPMI-8226 leukemia
[4] = test system: SK-MEL-5 melanoma
[5] = test system: SR leukemia
[6] = test system: SK-MEL-2 melanoma
[7] = test system: ACHN renal
[8] = test system: NCI/ADR-RES ovarian
[9] = test system: M14 melanoma
[10] = test system: NCI-H226 lung

N#C/C(=C/N1CCN(C(=O)c2ccco2)C1=S)C(N)=O
GI50 [1]: 7.51 µM | TGI [1]: 98.2 µM | GI50 [2]: > 100 µM | TGI [2]: > 100 µM | GI50 [3]: 12.4 µM | TGI [3]: > 100 µM | GI50 [4]: 16.5 µM | TGI [4]: 38.9 µM | GI50 [5]: 3.03 µM | TGI [5]: > 100 µM | GI50 [6]: 24.4 µM | TGI [6]: 62.3 µM | GI50 [7]: 11.8 µM | TGI [7]: 38.8 µM | GI50 [8]: 25.4 µM | TGI [8]: 59.6 µM | GI50 [9]: 16.5 µM | TGI [9]: 43.2 µM

NS(=O)(=O)c1ccc(-n2nc(-c3ccc(Cl)cc3)cc2C2=CC(=O)C=CC2=O)cc1
GI50 [1]: 16 µM | TGI [1]: 36.1 µM | GI50 [2]: 3.57 µM | TGI [2]: > 100 µM | GI50 [3]: 6.86 µM | TGI [3]: 33.4 µM | GI50 [4]: 18.2 µM | TGI [4]: 43.5 µM | GI50 [5]: 26.7 µM | TGI [5]: > 100 µM | GI50 [6]: 58 µM | TGI [6]: > 100 µM | GI50 [7]: 20.8 µM | TGI [7]: 35.1 µM | GI50 [10]: 13.8 µM | TGI [10]: 34.4 µM | GI50 [8]: 27.2 µM | TGI [8]: 63.5 µM | GI50 [9]: 23 µM | TGI [9]: 42.8 µM

COC(=O)c1ccc2c(c1)nc(-c1ccc(Cl)cc1)n2-c1cc(C(C)(C)C)[nH]n1
GI50 [1]: 2.12 µM | TGI [1]: 6.07 µM | GI50 [2]: 4.91 µM | TGI [2]: > 100 µM | GI50 [3]: 3.93 µM | TGI [3]: 11.2 µM | GI50 [4]: 2.02 µM | TGI [4]: 5.1 µM | GI50 [5]: 3.23 µM | TGI [5]: > 100 µM | GI50 [6]: 3.89 µM | TGI [6]: 18.1 µM | GI50 [7]: 3 µM | TGI [7]: 9.34 µM | GI50 [10]: 4.09 µM | TGI [10]: 44 µM | GI50 [8]: 2.72 µM | TGI [8]: 7.35 µM | GI50 [9]: 2.9 µM | TGI [9]: 8.22 µM

COc1ccc(/C=C(/C(=O)N2CCNCC2)c2cc(OC)c(OC)c(OC)c2)cc1O
GI50 [1]: 3.18 µM | TGI [1]: > 100 µM | GI50 [2]: 3.23 µM | TGI [2]: > 100 µM | GI50 [3]: 3.55 µM | TGI [3]: > 100 µM | GI50 [4]: 4.71 µM | TGI [4]: 56.4 µM | GI50 [5]: 0.642 µM | TGI [5]: > 100 µM | GI50 [6]: 3.51 µM | TGI [6]: > 100 µM | GI50 [7]: 49.5 µM | TGI [7]: > 100 µM | GI50 [10]: 5.4 µM | TGI [10]: > 100 µM | GI50 [8]: > 100 µM | TGI [8]: > 100 µM | GI50 [9]: 3.83 µM | TGI [9]: > 100 µM

CCOc1ccc2c(c1)/C(=C\C=C\C1CC(C)C3CC(OCC)CCC3N1CC)CC(C)N2CC (configuration not stated)
GI50 [1]: 0.673 µM | TGI [1]: 1.92 µM | GI50 [2]: 0.472 µM | TGI [2]: 2.71 µM | GI50 [3]: 0.269 µM | TGI [3]: 1.65 µM | GI50 [4]: 0.702 µM | TGI [4]: 2.01 µM | GI50 [5]: 0.412 µM | TGI [5]: 2.75 µM | GI50 [6]: 1.66 µM | TGI [6]: 3.35 µM | GI50 [7]: 1.43 µM | TGI [7]: 2.95 µM | GI50 [10]: 1.06 µM | TGI [10]: 2.79 µM | GI50 [8]: 3.14 µM | TGI [8]: > 100 µM | GI50 [9]: 1.43 µM | TGI [9]: 3 µM

O=C1c2cc3c(cc2-c2c1c1ccc([N+](=O)[O-])cc1c(=O)n2CCCCl)OCO3
GI50 [1]: 2.27 µM | TGI [1]: > 100 µM | GI50 [2]: 0.279 µM | TGI [2]: > 100 µM | GI50 [3]: 0.275 µM | TGI [3]: > 26.6 µM | GI50 [4]: 0.246 µM | TGI [4]: 2.59 µM | GI50 [5]: 0.0158 µM | TGI [5]: 27.8 µM | GI50 [6]: > 100 µM | TGI [6]: > 100 µM | GI50 [7]: 0.0707 µM | TGI [7]: 0.234 µM | GI50 [10]: 0.409 µM | TGI [10]: 9.09 µM | GI50 [8]: 0.0743 µM | GI50 [9]: 1.52 µM | TGI [9]: > 100 µM
